According to patent publication US8367622B2, “Sulfated C-glycoside, method for isolating same and method for synthesizing same” (Shizuoka Prefecture Public University Corporation, priority 2009, dated 2013):
Entries after “also recorded” stand apart in the source; their conditions may differ. Where two headings read alike, the source gives them in different places.

How the values were obtained:
Water solubility = assay type: physicochemical
Excerpt: Considering the fact that sulfation has been correlated with mechanism of detoxification elimination in metabolism, the presence of precursors of chafuroside which are sulfated derivatives in tea leaves has great significance. As for isovitexin and vitexin, their anticancer effect, effect of reducing damages by UV irradiation, inhibiting effect of COX, antioxidant effect, antianxiety effect and the like have been drawing the attention recently.
(§1) In the result, the production of chafurosides A and B by heating was detected only in all of the extracts and their aqueous fractions.

[1] = Liquid-liquid partition with water and n-BuOH; assay type: physicochemical; details: qualitative
Procedure: 1 g of oolong tea leaves prepared from Shizu 7132 was ground and was subjected to extract with MeOH, 50%-MeOH and water (1 ml) under reflux. After concentrating, drying and solidifying the extract liquid under reduced pressure, it was suspended in water (0.4 ml) and then was extracted with n-BuOH (4 ml and 1 ml). All of the extracts, their aqueous fractions and n-BuOH fractions obtained by liquid-liquid partition thereof were heated at 160° C. for 40 minutes.
as §1

[2] = test system: atopic disease model induced by 2,4-dinitro-fluorobenzene; details: cited from earlier work; for activity in atopic disease model: oral administration, ingredients isolated from oolong tea
[3] = test system: intestinal polyp formation induced by azoxymethane (AOM); details: 2.5 mg/kg, same dosage as indomethacin; cited from earlier work

SMILES: O=c1cc(-c2ccc(O)cc2)oc2c([C@@H]3O[C@H](CO)[C@@H](O)[C@H](O)[C@H]3O)c(O)cc(O)c12 [vitexin]
- solubility in water (Water solubility; qualitative): very poorly soluble in water
- fraction after liquid-liquid partition water / n-butanol [1]: move to n-BuOH fractions; also recorded: move to the n-butanol solvent fraction

SMILES: O=c1cc(-c2ccc(O)cc2)oc2c([C@@H]3O[C@H](CO)[C@@H](O)[C@H](O)[C@H]3OS(=O)(=O)O)c(O)cc(O)c12 [prechafuroside B, vitexin 2″-O-sulfate]
- solubility in water (Water solubility): high water solubility

SMILES: O=c1cc(-c2ccc(O)cc2)oc2c3c(cc(O)c12)O[C@H]1[C@@H](O)[C@H](O)[C@@H](CO)O[C@@H]31 [chafuroside B]
- activity in atopic disease model [2]: exhibiting activities via oral administration

SMILES: O=c1cc(-c2ccc(O)cc2)oc2cc3c(c(O)c12)[C@@H]1O[C@H](CO)[C@@H](O)[C@H](O)[C@@H]1O3 [chafuroside A]
- dermal inflammation-inhibiting activity ([2]; 10 μg/kg, comparable with Prednisolone (10 mg/kg) and Betamethasone (0.8 mg/kg)): significant dermal inflammation-inhibiting activity
- activity in atopic disease model [2]: exhibiting activities via oral administration
- inhibiting activity against intestinal polyp formation [3]: effectively-inhibiting activity

SMILES: O=c1cc(-c2ccc(O)cc2)oc2cc(O)c([C@@H]3O[C@H](CO)[C@@H](O)[C@H](O)[C@H]3O)c(O)c12 [isovitexin]
- solubility in water (Water solubility; qualitative): very poorly soluble in water
- fraction after liquid-liquid partition water / n-butanol [1]: move to the n-butanol solvent fraction
- fraction after liquid-liquid partition water / n-butanol ([1]; listed as Isovitexin): move to n-BuOH fractions

SMILES: O=c1cc(-c2ccc(O)cc2)oc2cc(O)c([C@@H]3O[C@H](CO)[C@@H](O)[C@H](O)[C@H]3OS(=O)(=O)O)c(O)c12 [prechafuroside A, isovitexin 2″-O-sulfate]
- solubility in water (Water solubility): high water solubility
